Read-outs that look alike come from different tables or passages of the source.
Assays:
5-HT2A receptor = biological target: T1, 5-HT2A receptor (Homo sapiens, UniProt P28223); test: FLIPR Ca2+ flux functional assay, 5-HT2A; assay type: cell-based
T1 construct: host or cells: HEK293
Experimental: Activity at 5-HT2A, 5-HT2B and 5-HT2C receptors was determined using a FLIPR Ca^2+ flux assay at WuXi AppTec Co. Ltd. (Hong Kong) Discovery Biology Unit according to their standard protocols. Briefly, stably transfected cells expressing the receptor of interest (HEK293 for 5-HT2A and 5-HT2C; CHO-K1 for 5-HT2B) were grown and plated in a 384 well plate and incubated at 37° C. and 5% CO2 overnight. A 250 mM stock solution of probenecid in FLIPR calcium assay buffer (10 mL) was freshly prepared and combined with a fluorescent dye (Fluo-4 Direct) to give a final assay concentration of 2.5 mM. Reference compounds were 4-fold serially diluted and the screening compounds were 3-fold serially diluted in 100% DMSO for 10 points using Agilent Bravo, and 750 nL was added to a 384 well compound plate using Echo along with 30 μL assay buffer. The fluorescent dye was then added to the assay plate along with assay buffer to a final volume of […]. The cell plate was incubated for 50 min at 37° C. and 5% CO2 and placed into the FLIPR Tetra along with the compound plate. 10 μL of references and compounds were then transferred from the compound plate into the cell plate and the fluorescent signal was read.

5-HT2B receptor = biological target: T2, 5-HT2B receptor (Homo sapiens, UniProt P41595); test: cell-based
T2 construct: host or cells: CHO-K1

5-HT2C receptor = biological target: T3, 5-HT2C receptor (Homo sapiens, UniProt P28335); test: cell-based
T3 construct: host or cells: HEK293
T3 sequence (P28335 33-458): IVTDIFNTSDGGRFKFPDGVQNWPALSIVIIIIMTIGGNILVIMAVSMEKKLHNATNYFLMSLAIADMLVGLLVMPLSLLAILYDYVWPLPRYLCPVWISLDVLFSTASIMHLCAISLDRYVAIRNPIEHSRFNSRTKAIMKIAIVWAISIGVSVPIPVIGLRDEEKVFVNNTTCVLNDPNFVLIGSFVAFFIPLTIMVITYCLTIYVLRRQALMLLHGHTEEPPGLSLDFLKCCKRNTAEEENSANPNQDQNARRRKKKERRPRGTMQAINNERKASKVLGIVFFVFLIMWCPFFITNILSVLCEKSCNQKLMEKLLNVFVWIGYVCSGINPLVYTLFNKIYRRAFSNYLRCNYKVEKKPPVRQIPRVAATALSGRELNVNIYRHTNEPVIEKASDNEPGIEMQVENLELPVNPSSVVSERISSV

[1] = agonist activity, Ca2+ flux, HEK293 cells
[2] = agonist activity, Ca2+ flux, HEK293 cells, read-out: 5-HT2A EC50
[3] = agonist activity, Ca2+ flux, CHO-K1 cells
[4] = agonist activity, Ca2+ flux, CHO-K1 cells, read-out: 5-HT2B EC50
[5] = agonist activity, Ca2+ flux, HEK293 cells, read-out: 5-HT2C EC50

T2 sequence (P41595 whole entry): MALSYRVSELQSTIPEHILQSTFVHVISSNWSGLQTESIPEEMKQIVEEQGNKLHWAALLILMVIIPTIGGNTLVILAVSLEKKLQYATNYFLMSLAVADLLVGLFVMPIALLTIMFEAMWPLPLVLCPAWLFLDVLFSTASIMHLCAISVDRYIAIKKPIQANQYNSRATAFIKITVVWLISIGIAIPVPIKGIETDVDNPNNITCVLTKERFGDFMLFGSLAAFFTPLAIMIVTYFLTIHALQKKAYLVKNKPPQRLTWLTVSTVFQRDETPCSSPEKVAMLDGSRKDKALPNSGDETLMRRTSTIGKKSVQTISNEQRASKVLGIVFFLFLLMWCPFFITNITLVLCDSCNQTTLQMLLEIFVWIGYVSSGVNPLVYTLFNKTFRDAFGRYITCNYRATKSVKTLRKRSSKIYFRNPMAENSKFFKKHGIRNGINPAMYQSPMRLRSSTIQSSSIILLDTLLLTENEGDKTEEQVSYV
T1 sequence (P28223 whole entry): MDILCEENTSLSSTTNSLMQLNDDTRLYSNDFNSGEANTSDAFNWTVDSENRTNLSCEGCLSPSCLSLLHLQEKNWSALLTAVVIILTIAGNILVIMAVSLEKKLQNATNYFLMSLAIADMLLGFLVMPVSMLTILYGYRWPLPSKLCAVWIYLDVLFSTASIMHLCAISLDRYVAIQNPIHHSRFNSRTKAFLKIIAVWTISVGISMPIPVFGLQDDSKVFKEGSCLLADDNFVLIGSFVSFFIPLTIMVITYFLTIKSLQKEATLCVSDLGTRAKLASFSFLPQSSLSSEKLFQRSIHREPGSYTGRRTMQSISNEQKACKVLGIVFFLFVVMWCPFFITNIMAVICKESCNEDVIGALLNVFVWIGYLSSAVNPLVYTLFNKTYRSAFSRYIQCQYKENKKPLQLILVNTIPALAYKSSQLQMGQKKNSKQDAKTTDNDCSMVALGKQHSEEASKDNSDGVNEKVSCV

SMILES	Emax (5-HT2A receptor; [1])	EC50 (5-HT2A receptor; [2])	Emax (5-HT2B receptor; [3])	EC50 (5-HT2B receptor; [4])	Emax (5-HT2C receptor; [1])	EC50 (5-HT2C receptor; [5])	EC50 (5-HT2A receptor)	EC50 (5-HT2B receptor)	EC50 (5-HT2C receptor)
COc1cc(C)c2[nH]cc(CCN(C(C)C)C(C)C)c2c1 [Example P-58, N-isopropyl-N-(2-(5-methoxy-7-methyl-1H-indol-3-yl)ethyl)propan-2-amine]	84%	475 nM	42.8%	604 nM	85.8%	1700 nM			
COc1cc2c(CCN(C(C)C)C(C)C)c[nH]c2cc1C [Example P-49, N-isopropyl-N-(2-(5-methoxy-6-methyl-1H-indol-3-yl)ethyl)propan-2-amine]	83.5%		74.8%		87%				
COc1cc(F)cc2[nH]cc(CCN(C)C)c12 [Example P-14, 2-(6-fluoro-4-methoxy-1H-indol-3-yl)-N,N-dimethylethan-1-amine]	87.2%	12.9 nM	0.17%	> 10000 nM	75.7%	2.6 nM			
CN(C)CCc1c[nH]c2ccc(F)c(F)c12 [Example P-142, 2-(4,5-difluoro-1H-indol-3-yl)-N,N-dimethylethan-1-amine]	70%		2.92%		118%				
CC(C)N(C)CCc1c[nH]c2c(F)c(F)ccc12 [Example P-161, N-(2-(6,7-difluoro-1H-indol-3-yl)ethyl)-N-methylpropan-2-amine]	48%	54.8 nM	1.6%	> 10000 nM	80.9%	418 nM			
CCN(CC)CCc1c[nH]c2ccc(C)c(O)c12 [Example P-67, 3-(2-(diethylamino)ethyl)-5-methyl-1H-indol-4-ol]	78.3%	163 nM	11.7%	≥ 10000 nM	78.2%	922 nM			
COc1ccc(F)c2[nH]cc(CCN(C(C)C)C(C)C)c12 [Example P-105, N-(2-(7-fluoro-4-methoxy-1H-indol-3-yl)ethyl)-N-isopropylpropan-2-amine]	91.2%	147 nM	127%	134 nM	92.6%	1200 nM			
CC(C)N(CCc1c[nH]c2ccc(F)c(F)c12)C(C)C [Example P-146, N-(2-(4,5-difluoro-1H-indol-3-yl)ethyl)-N-isopropylpropan-2-amine]	98.4%	10.1 nM	155%	21.4 nM	93.1%	25.4 nM			
CCN(CC)CCc1c[nH]c2ccc3ocnc3c12 [Example P-129, N,N-diethyl-2-(6H-oxazolo[4,5-e]indol-8-yl)ethan-1-amine]	64%		41.1%		93.1%		14.4 nM	14.9 nM	72.7 nM
COc1ccc2[nH]cc(CCN(C)C)c2c1C [Example P-6, 2-(5-methoxy-4-methyl-1H-indol-3-yl)-N,N-dimethylethan-1-amine]	64.1%	124 nM	11.3%	> 10000 nM	73.6%	303 nM			
CCCN(CCC)CCc1c[nH]c2c(C)cc(OC)cc12 [Example P-57, N, N-dipropyl-2-(5-methoxy-7-methyl-1H-indol-3-yl)ethan-1-amine]	79.2%	140 nM	9.45%	> 10000 nM	30.7%	2860 nM			
COc1c(F)ccc2[nH]cc(CCN(C)C(C)C)c12 [Example P-93, N-(2-(5-fluoro-4-methoxy-1H-indol-3-yl)ethyl)-N-methylpropan-2-amine]	95.3%	7.25 nM	51.5%	24.8 nM	85.1%	45.2 nM			
CCN(C)CCc1c[nH]c2cc(F)cc(F)c12 [Example P-148, 2-(4,6-difluoro-1H-indol-3-yl)-N-ethyl-N-methylethan-1-amine]	78.9%	51.4 nM	35.6%	≥ 10000 nM	35.6%				
